Format in all cases: cell-based
In one test the test system is immature mouse neurons. The experiment in a line: Resting membrane potential and membrane capacitance of DIV6 immature mouse neurons.
Test [1] has as its system KCC2 expression. The experiment in a line: Western blot of KCC2 in cultured WT human neurons. The following applies: cultured WT human neurons (WIBR1); Western blot. A general note: In western blotting, separated proteins are transferred to a membrane and probed.
The subject of test [2] is human RTT neurons. Kind of test: Neuronal morphology analysis of cultured human RTT neurons. The following applies: for neurite complexity (Sholl analysis): vs DMSO- or MeBIO-treated. An excerpt: Moreover, a reduction in the number or the strength of excitatory glutamatergic synapses in RTT neurons has been observed in postmortem RTT patient brain samples (30), mouse models of RTT (53), and human stem cell-derived RTT neurons (54). Electrophysiology recording was utilized to assess whether KEECs could rescue the deficits in EGABA and excitatory synaptic transmission of RTT neurons. […] We further investigated whether the beneficial effect of KEECs is a direct result of the increases in neuronal KCC2 gene expression. […] Deficits in a number of morphological measurements, including nuclei size and neurite complexity and branching, are hallmarks of RTT neurons (54-56). […] To validate the morphological measurements, electrophysiological measurements of the neuronal membrane capacitance (Cm), an indicator of neuronal cell size (57) that is reduced in RTT neurons, were conducted. […] Fluorescent images of randomly-selected neurons were acquired on a Nikon Eclipse Ti epifluorescence microscope equipped with 20× lens. Nucleus size analysis of DAPI-stained neuronal nucleus were performed with ImageJ. Sholl analysis and measurements of the total neurite length and branch points were performed with the Simple Neurite Tracer plugin of the ImageJ software. Morphological analyses were carried out with about 60 randomly-selected neurons per treatment group. Image acquisition and analysis were carried out by different researchers, and automated analysis software pipeline were utilized to reduce human bias.

Test [3] has as its system KCC2 expression. Kind of test: Western blot of KCC2 in cultured human RTT neurons. The following applies: Western blot; for concentration at which treatment significantly increases KCC2 expression: cultured ESC-derived human RTT neurons; for KCC2 expression: cultured human RTT neurons. An outline of the steps: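 Cultured neurons lysed in RIPA buffer (pH 7.6) with sonication; immunoblotted on PVDF with KCC2 antibody (1:2000) overnight at 4° C., HRP secondary.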

In test [4] the test system is human RTT neurons. The experiment in a line: Membrane capacitance (Cm) of cultured human RTT neurons. The following applies: for increase of neuronal Cm: RTT neurons transfected with KCC2 shRNA; for membrane capacitance (Cm): cultured human RTT neurons, vs DMSO or MeBIO control. The source says: (§1) Moreover, a reduction in the number or the strength of excitatory glutamatergic synapses in RTT neurons has been observed in postmortem RTT patient brain samples (30), mouse models of RTT (53), and human stem cell-derived RTT neurons (54). Electrophysiology recording was utilized to assess whether KEECs could rescue the deficits in EGABA and excitatory synaptic transmission of RTT neurons. […] We further investigated whether the beneficial effect of KEECs is a direct result of the increases in neuronal KCC2 gene expression. […] Deficits in a number of morphological measurements, including nuclei size and neurite complexity and branching, are hallmarks of RTT neurons (54-56). […] To validate the morphological measurements, electrophysiological measurements of the neuronal membrane capacitance (Cm), an indicator of neuronal cell size (57) that is reduced in RTT neurons, were conducted.
(§2) Functionally mature human neuron cultures were obtained by seeding human WT or isogenic RTT NPCs on a layer of primary mouse astrocyte culture as previously described (57). In the cultured WT human neurons, KCC2 expression reaches mature level between 2-3 months (7). We therefore treated the WT or RTT human neurons 8-12 weeks in culture, with compounds for a duration of two weeks before conducting whole-cell patch-clamp recording. The extracellular bath solution, that perfused the recording chamber, consists of (in mM): 120 NaCl, 30 glucose, 25 HEPES, 5 KCl, 2 CaCl2, 1 MgCl2. The pH was adjusted to 7.3 with NaOH. The high-chloride internal pipette solution consists of (in mM): 147 KCl, 5 Na-phosphocreatine, 2 EGTA, 10 HEPES, 4 MgATP, and 0.5 Na2GTP; the pH 7.3 was adjusted with KOH. To record mini EPSC, the membrane potential was held at −70 mV, and 0.5 μM of TTX and 50 μM Picrotoxin were applied with bath solution to block action potential and GABAergic synaptic transmission.

Test [5] has as its system human RTT neurons. The experiment in a line: mEPSC whole-cell patch-clamp recording in cultured human RTT neurons. The following applies: for mEPSC frequency enhancement: RTT neurons with KCC2 shRNA transfection; for frequency of mEPSCs / mEPSC amplitude: cultured human RTT neurons; for mEPSC amplitude: vs DMSO control.
Text: as §1, §2
To evoke GABA response, a pipette filled with 100 μM GABA solution was positioned 5-10 μm away from the neuronal cell body. Air pulses at the pressure of 10 p.s.i. and duration of 100 ms were generated with a Picrospritzer (Parker Instrumentation) to puff GABA solution onto neuronal cell body. Neuronal response to GABA puffs were recorded at different membrane holding potentials from −90 mV to +30 mV, and the EGABA values were calculated with linear regression. Electrophysiological signals were recorded with Multiclamp 700A patch-clamp amplifier and data were collected with Clamp 9 software (Molecular Devices, Palo Alto, CA), sampled at 10 kHz and filtered at 1 KHz. Off-line data analyses of mEPSC synaptic events were performed with MiniAnalysis software (Synaptosoft, Decator, GA). All experiments were performed at room temperature. A sample size of 5-8 neurons was used for EGABA measurements, while a sample size of 14-19 neurons was used for mEPSC measurements. All data were presented as mean±SEM. ANOVA test followed by the Bonferroni correction were used for statistical analysis. The Kolmogorov-Smirnov test was employed to compare the cumulative distribution between two datasets.
Background: In patch-clamp work, channel activity is measured electrically.

Test [6] relates to KCC2 expression. Kind of test: Western blot of KCC2 in organotypic mouse brain slices. The following applies: organotypic neonatal mouse brain slices, treated 7 days, vs DMSO, MeBIO or medium-only control.

“Also recorded” adds a separate entry of the source.

In the case of `O=C1Nc2cc(Br)ccc2/C1=C1/Nc2ccccc2/C1=N\O` [BIO, (2Z,3E)-6′-bromo-3-(hydroxyimino)-[2,3′-biindolinylidene]-2′-one], the resting membrane potential entry with immature mouse neurons is reported as “does not significantly alter the resting membrane potential”. In addition, the KCC2 expression result in the test on KCC2 expression [1] is “significantly increased KCC2 expression”. Besides, in the test on human RTT neurons [2], the nucleus size entry is listed as “significantly increase the nucleus size”, the “number of neurite branches” value is reported as “significantly increase”, the total neurite length result was “significantly increase” and the “neurite complexity (Sholl analysis)” value is reported as “significant increase in neurite complexity”. In addition, in the test on KCC2 expression [3], the “concentration at which treatment significantly increases KCC2 expression” value was found to be 0.3 µM and the KCC2 expression entry was “increased KCC2 expression levels significantly”. Further, the KCC2 expression result in the test with KCC2 expression [3] (listed as KIN 001-043) is “increase KCC2 expression”. In addition, in the test on human RTT neurons [4], the “increase of neuronal Cm” value is reported as “abolished the capability” and the “membrane capacitance (Cm)” value is given as “significantly higher Cm, at levels comparable to isogenic WT human neurons”. In addition, in the test with human RTT neurons [5], the mEPSC frequency enhancement entry is reported as “abolished the effect”, the “frequency of mEPSCs” value is recorded as “significantly increased the frequency of mEPSCs to levels equivalent to WT control” and the mEPSC amplitude entry was “significantly increased mEPSC amplitude”. Besides, the KCC2 protein level entry in the test with KCC2 expression [6] is listed as “enhanced KCC2 expression levels”.

`O=C(c1ccc(/C=C/c2n[nH]c3ccccc23)cc1)N1CCNCC1` [KW-2449, (E)-(4-(2-(1H-indazol-3-yl)vinyl)phenyl)(piperazin-1-yl)methanone]: the resting membrane potential result with immature mouse neurons is on record as “does not significantly alter the resting membrane potential”. In the test with immature mouse neurons (vs DMSO control), the membrane capacitance result is on record as “significantly increase the membrane capacitance”. In addition, in the test with KCC2 expression [1], the KCC2 expression result is recorded as “significant increase in KCC2 expression in a dose-dependent manner”. In addition, in the test on human RTT neurons [2], the nucleus size result was “significantly increase the nucleus size”, the “number of neurite branches” value is listed as “significantly increase”, the total neurite length result was “significantly increase” and the “neurite complexity (Sholl analysis)” value is “significant increase in neurite complexity”. Further, in the test with KCC2 expression [3], the “concentration at which treatment significantly increases KCC2 expression” value turned out to be 0.1 µM and the KCC2 expression entry is reported as “increase KCC2 expression; also recorded: significant enhancement of KCC2 expression”. In the test with human RTT neurons [4], the “increase of neuronal Cm” value is listed as “abolished the capability” and the “membrane capacitance (Cm)” value was “significantly higher Cm, at levels comparable to isogenic WT human neurons”. In the test with human RTT neurons [5], the mEPSC frequency enhancement result is recorded as “abolished the effect”, the “frequency of mEPSCs” value is on record as “significantly increased the frequency of mEPSCs to levels equivalent to WT control” and the mEPSC amplitude entry is on record as “significantly increased mEPSC amplitude”. The KCC2 protein level entry in the test with KCC2 expression [6] was “enhanced KCC2 expression levels”.
